Assay results: patent US10160747B2, “Compounds and methods for kinase modulation, and indications therefor” (Plexxikon Inc., priority 2016, dated 2018)

Molecular target: T1, c-KIT (Homo sapiens, UniProt P10721)
T1 construct: purchased Millipore 14-559K
Assay: c-KIT recombinant enzyme kinase assay (AlphaScreen)
Type: biochemical
Conditions: 100 ATP, 8 pt
Summary of the method: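 Enzyme plus biotinylated poly(Glu4-Tyr) substrate (30 nM) mixed with compound, then ATP added. Donor beads went in for 20 min at room temperature, then PY20 acceptor beads for 60 min. AlphaScreen read; ATP was 10 μM for FLT3-ITD/D835Y and 100 μM for c-KIT.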

T1 sequence (P10721 26-976): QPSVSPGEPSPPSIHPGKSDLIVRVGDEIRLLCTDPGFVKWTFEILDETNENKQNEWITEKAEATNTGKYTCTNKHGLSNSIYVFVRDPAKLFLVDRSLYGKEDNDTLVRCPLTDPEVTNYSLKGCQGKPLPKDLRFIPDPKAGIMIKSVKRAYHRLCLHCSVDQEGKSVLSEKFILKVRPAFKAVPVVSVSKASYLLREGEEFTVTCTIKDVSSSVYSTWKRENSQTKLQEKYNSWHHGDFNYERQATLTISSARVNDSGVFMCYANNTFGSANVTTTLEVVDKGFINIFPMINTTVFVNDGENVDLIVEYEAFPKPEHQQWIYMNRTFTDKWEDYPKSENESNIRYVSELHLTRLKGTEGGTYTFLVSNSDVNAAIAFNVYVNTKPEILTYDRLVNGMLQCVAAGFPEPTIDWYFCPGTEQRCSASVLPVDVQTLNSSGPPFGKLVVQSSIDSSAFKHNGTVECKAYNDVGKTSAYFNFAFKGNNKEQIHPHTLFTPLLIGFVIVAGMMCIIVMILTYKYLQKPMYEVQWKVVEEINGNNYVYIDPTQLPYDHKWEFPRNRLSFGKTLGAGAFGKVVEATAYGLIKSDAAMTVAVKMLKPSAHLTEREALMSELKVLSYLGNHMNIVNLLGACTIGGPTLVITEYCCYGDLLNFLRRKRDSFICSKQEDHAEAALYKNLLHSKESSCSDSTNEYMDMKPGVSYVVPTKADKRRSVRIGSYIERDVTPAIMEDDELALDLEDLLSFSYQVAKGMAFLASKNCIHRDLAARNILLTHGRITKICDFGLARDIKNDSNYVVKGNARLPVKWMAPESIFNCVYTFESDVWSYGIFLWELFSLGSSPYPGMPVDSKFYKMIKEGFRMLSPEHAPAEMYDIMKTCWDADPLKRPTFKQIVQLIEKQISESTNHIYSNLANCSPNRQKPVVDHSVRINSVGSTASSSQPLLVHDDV

Row | SMILES | IC50
1 | Cn1cnc(Nc2ncc(-c3ccc(CC(=O)Nc4cnc(F)c(C(C)(F)F)c4)cc3)cn2)c1 [Compound P-0168, N-[5-(1,1-difluoroethyl)-6-fluoro-3-pyridyl]-2-[4-[2-[(1-methylimidazol-4-yl)amino]pyrimidin-5-yl]phenyl]acetamide] | 0.0001 to 10 µM
2 | Cn1cnc(Nc2ncc(-c3ccc(CC(=O)Nc4cc(C(C)(F)F)ccn4)cc3)cn2)c1 [Compound P-0169, N-[4-(1,1-difluoroethyl)-2-pyridyl]-2-[4-[2-[(1-methylimidazol-4-yl)amino]pyrimidin-5-yl]phenyl]acetamide] | 0.0001 to 10 µM
3 | Cn1cnc(Nc2ncc(-c3ccc(CC(=O)Nc4cnc(F)c(C(C)(F)F)c4)cc3F)cn2)c1 [Compound P-0170, N-[5-(1,1-difluoroethyl)-6-fluoro-3-pyridyl]-2-[3-fluoro-4-[2-[(1-methylimidazol-4-yl)amino]pyrimidin-5-yl]phenyl]acetamide] | 0.0001 to 10 µM
4 | Cc1n[nH]c2ncc(-c3cc(F)c(CC(=O)Nc4cncc(C(F)(F)F)c4)cc3F)cc12 [Compound P-0173, 2-[2,5-difluoro-4-(3-methyl-1H-pyrazolo[3,4-b]pyridin-5-yl)phenyl]-N-[5-(trifluoromethyl)-3-pyridyl]acetamide] | 0.0001 to 10 µM
5 | COc1ncc(NC(=O)Cc2ccc(-c3cnc4[nH]nc(C)c4c3)c(F)c2)cc1C(F)(F)F [Compound P-0174, 2-[3-fluoro-4-(3-methyl-1H-pyrazolo[3,4-b]pyridin-5-yl)phenyl]-N-[6-methoxy-5-(trifluoromethyl)-3-pyridyl]acetamide] | 0.0001 to 10 µM
6 | Cc1ncc(NC(=O)Cc2cc(F)c(-c3cnc4[nH]nc(C)c4c3)cc2F)cc1C(F)(F)F [Compound P-0175, 2-(2,5-difluoro-4-(3-methyl-1H-pyrazolo[3,4-b]pyridin-5-yl)phenyl)-N-(6-methyl-5-(trifluoromethyl)pyridin-3-yl)acetamide] | 0.0001 to 10 µM
7 | COc1ncc(NC(=O)Cc2cc(F)c(-c3cnc4[nH]nc(C)c4c3)cc2F)cc1C(F)(F)F [Compound P-0176, 2-[2,5-difluoro-4-(3-methyl-1H-pyrazolo[3,4-b]pyridin-5-yl)phenyl]-N-[6-methoxy-5-(trifluoromethyl)-3-pyridyl]acetamide] | 0.0001 to 10 µM
8 | Cc1n[nH]c2ncc(-c3ccc(CC(=O)Nc4cncc(C(F)(F)F)c4)cc3F)cc12 [Compound P-0177, 2-[3-fluoro-4-(3-methyl-1H-pyrazolo[3,4-b]pyridin-5-yl)phenyl]-N-[5-(trifluoromethyl)-3-pyridyl]acetamide] | 0.0001 to 10 µM
9 | COCCn1cc(Nc2ncc(-c3ccc(CC(=O)Nc4cncc(C(F)(F)F)c4)cc3)cn2)cn1 [Compound P-0178, 2-[4-[2-[[1-(2-methoxyethyl)pyrazol-4-yl]amino]pyrimidin-5-yl]phenyl]-N-[5-(trifluoromethyl)-3-pyridyl]acetamide] | 0.0001 to 10 µM
10 | COCCn1cc(Nc2ncc(-c3ccc(CC(=O)Nc4cnc(C)c(C(F)(F)F)c4)cc3)cn2)cn1 [Compound P-0179, 2-[4-[2-[[1-(2-methoxyethyl)pyrazol-4-yl]amino]pyrimidin-5-yl]phenyl]-N-[6-methyl-5-(trifluoromethyl)-3-pyridyl]acetamide] | 0.0001 to 10 µM
11 | COc1nn(C[C@H](C)O)cc1Nc1ncc(-c2ccc(CC(=O)Nc3cnc(C)c(C(F)(F)F)c3)cc2)cn1 [Compound P-0180, 2-[4-[2-[[1-[(2S)-2-hydroxypropyl]-3-methoxy-pyrazol-4-yl]amino]pyrimidin-5-yl]phenyl]-N-[6-methyl-5-(trifluoromethyl)-3-pyridyl]acetamide] | 0.0001 to 10 µM
12 | O=C(Cc1ccc(-c2cnc3[nH]c(-c4ccnc(N5CCOCC5)c4)cc3c2)cn1)Nc1ccnc(C(F)(F)F)c1 [Compound P-0181, 2-[5-[2-(2-morpholino-4-pyridyl)-1H-pyrrolo[2,3-b]pyridin-5-yl]-2-pyridyl]-N-[2-(trifluoromethyl)-4-pyridyl]acetamide] | 0.0001 to 10 µM
13 | N#Cc1cc(-c2cc3cc(-c4ccc(CC(=O)Nc5ccnc(C(F)(F)F)c5)nc4)cnc3[nH]2)ccn1 [Compound P-0182, 2-[5-[2-(2-cyano-4-pyridyl)-1H-pyrrolo[2,3-b]pyridin-5-yl]-2-pyridyl]-N-[2-(trifluoromethyl)-4-pyridyl]acetamide] | 0.0001 to 10 µM
14 | O=C(Cc1ccc(-c2cnc3[nH]c(-c4ccc(N5CCOCC5)nc4)cc3c2)cn1)Nc1ccnc(C(F)(F)F)c1 [Compound P-0183, 2-[5-[2-(6-morpholino-3-pyridyl)-1H-pyrrolo[2,3-b]pyridin-5-yl]-2-pyridyl]-N-[2-(trifluoromethyl)-4-pyridyl]acetamide] | 0.0001 to 10 µM
15 | N#Cc1cc(-c2cc3cc(-c4ccc(CC(=O)Nc5cc(C(F)(F)F)ccn5)cc4F)cnc3[nH]2)ccn1 [Compound P-0194, 2-[4-[2-(2-cyano-4-pyridyl)-1H-pyrrolo[2,3-b]pyridin-5-yl]-3-fluoro-phenyl]-N-[4-(trifluoromethyl)-2-pyridyl]acetamide] | 0.0001 to 10 µM
16 | N#Cc1ccc(-c2cc3cc(-c4ccc(CC(=O)Nc5cncc(C(F)(F)F)c5)cc4F)cnc3[nH]2)cn1 [Compound P-0195, 2-[4-[2-(6-cyano-3-pyridyl)-1H-pyrrolo[2,3-b]pyridin-5-yl]-3-fluoro-phenyl]-N-[5-(trifluoromethyl)-3-pyridyl]acetamide] | 0.0001 to 10 µM
17 | COc1ccc(-c2cc3cc(-c4ccc(CC(=O)Nc5cncc(C(F)(F)F)c5)cc4F)cnc3[nH]2)cn1 [Compound P-0196, 2-[3-fluoro-4-[2-(6-methoxy-3-pyridyl)-1H-pyrrolo[2,3-b]pyridin-5-yl]phenyl]-N-[5-(trifluoromethyl)-3-pyridyl]acetamide] | 0.0001 to 10 µM
18 | O=C(Cc1ccc(-c2cnc3[nH]c(-c4ccc(N5CCOCC5)nc4)cc3c2)c(F)c1)Nc1cncc(C(F)(F)F)c1 [Compound P-0198, 2-[3-fluoro-4-[2-(6-morpholino-3-pyridyl)-1H-pyrrolo[2,3-b]pyridin-5-yl]phenyl]-N-[5-(trifluoromethyl)-3-pyridyl]acetamide] | 0.0001 to 10 µM
19 | N#Cc1cc(-c2cc3cc(-c4ccc(CC(=O)Nc5cncc(C(F)(F)F)c5)cc4F)cnc3[nH]2)ccn1 [Compound P-0199, 2-[4-[2-(2-cyano-4-pyridyl)-1H-pyrrolo[2,3-b]pyridin-5-yl]-3-fluoro-phenyl]-N-[5-(trifluoromethyl)-3-pyridyl]acetamide] | 0.0001 to 10 µM
